Measurements as given in PubChem BioAssay AID1259407 (Chemical Carcinogenesis Research Information System (CCRIS), 2018).
Calls of active or inactive are those of the source. No rule for the calls is given here.

Test system: CCRIS mutagenicity, Ames/micronucleus/aberration tests
Experiment: CCRIS mutagenicity studies
[1] = Test System: AMES SALMONELLA TYPHIMURIUM, Strain/Indicator: TA98, Metabolic Activation: NONE, Method: STANDARD PLATE

SMILES: Cc1ccccn1
- mutagenic call (Test System: AMES SALMONELLA TYPHIMURIUM, Strain/Indicator: TA97, Metabolic Activation: NONE, Method: STANDARD PLATE): inactive; negative
- mutagenic call (Test System: AMES SALMONELLA TYPHIMURIUM, Strain/Indicator: TA97, Metabolic Activation: RAT, LIVER, S-9, AROCLOR 1254, Method: STANDARD PLATE): inactive; negative
- mutagenic call (Test System: AMES SALMONELLA TYPHIMURIUM, Strain/Indicator: TA98, Metabolic Activation: NONE, Method: PREINCUBATION): inactive; negative
- mutagenic call [1]: inactive; negative
- mutagenic call (Test System: AMES SALMONELLA TYPHIMURIUM, Strain/Indicator: TA98, Metabolic Activation: RAT LIVER S-9, PHENOBARBITAL AND BETA-NAPHTHOFLAVONE, Method: PREINCUBATION): inactive; negative
- mutagenic call (Test System: AMES SALMONELLA TYPHIMURIUM, Strain/Indicator: TA98, Metabolic Activation: RAT, LIVER, S-9, AROCLOR 1254, Method: PREINCUBATION): inactive; negative
- mutagenic call (Test System: AMES SALMONELLA TYPHIMURIUM, Strain/Indicator: TA98, Metabolic Activation: RAT, LIVER, S-9, AROCLOR 1254, Method: STANDARD PLATE): inactive; negative
- mutagenic call (Test System: AMES SALMONELLA TYPHIMURIUM, Strain/Indicator: TA100, Metabolic Activation: NONE, Method: PREINCUBATION): inactive; negative
- mutagenic call (Test System: AMES SALMONELLA TYPHIMURIUM, Strain/Indicator: TA100, Metabolic Activation: NONE, Method: STANDARD PLATE): inactive; negative
- mutagenic call (Test System: AMES SALMONELLA TYPHIMURIUM, Strain/Indicator: TA100, Metabolic Activation: RAT LIVER S-9, PHENOBARBITAL AND BETA-NAPHTHOFLAVONE, Method: PREINCUBATION): inactive; negative
- mutagenic call (Test System: AMES SALMONELLA TYPHIMURIUM, Strain/Indicator: TA100, Metabolic Activation: RAT, LIVER, S-9, AROCLOR 1254, Method: PREINCUBATION): inactive; negative
- mutagenic call (Test System: AMES SALMONELLA TYPHIMURIUM, Strain/Indicator: TA100, Metabolic Activation: RAT, LIVER, S-9, AROCLOR 1254, Method: STANDARD PLATE): inactive; negative
- mutagenic call (Test System: AMES SALMONELLA TYPHIMURIUM, Strain/Indicator: TA102, Metabolic Activation: NONE, Method: PREINCUBATION): inactive; negative
- mutagenic call (Test System: AMES SALMONELLA TYPHIMURIUM, Strain/Indicator: TA102, Metabolic Activation: NONE, Method: STANDARD PLATE): inactive; negative
- mutagenic call (Test System: AMES SALMONELLA TYPHIMURIUM, Strain/Indicator: TA102, Metabolic Activation: RAT LIVER S-9, PHENOBARBITAL AND BETA-NAPHTHOFLAVONE, Method: PREINCUBATION): inactive; negative
- mutagenic call (Test System: AMES SALMONELLA TYPHIMURIUM, Strain/Indicator: TA102, Metabolic Activation: RAT, LIVER, S-9, AROCLOR 1254, Method: PREINCUBATION): inactive; negative
- mutagenic call (Test System: AMES SALMONELLA TYPHIMURIUM, Strain/Indicator: TA102, Metabolic Activation: RAT, LIVER, S-9, AROCLOR 1254, Method: STANDARD PLATE): inactive; negative
- mutagenic call (Test System: AMES SALMONELLA TYPHIMURIUM, Strain/Indicator: TA104, Metabolic Activation: NONE, Method: PREINCUBATION): inactive; negative
- mutagenic call (Test System: AMES SALMONELLA TYPHIMURIUM, Strain/Indicator: TA104, Metabolic Activation: RAT LIVER S-9, PHENOBARBITAL AND BETA-NAPHTHOFLAVONE, Method: PREINCUBATION): inactive; negative
- mutagenic call (Test System: AMES SALMONELLA TYPHIMURIUM, Strain/Indicator: TA1535, Metabolic Activation: NONE, Method: PREINCUBATION): inactive; negative
- mutagenic call (Test System: AMES SALMONELLA TYPHIMURIUM, Strain/Indicator: TA1535, Metabolic Activation: RAT LIVER S-9, PHENOBARBITAL AND BETA-NAPHTHOFLAVONE, Method: PREINCUBATION): inactive; negative
- mutagenic call (Test System: AMES SALMONELLA TYPHIMURIUM, Strain/Indicator: TA1537, Metabolic Activation: NONE, Method: PREINCUBATION): inactive; negative
- mutagenic call (Test System: AMES SALMONELLA TYPHIMURIUM, Strain/Indicator: TA1537, Metabolic Activation: RAT LIVER S-9, PHENOBARBITAL AND BETA-NAPHTHOFLAVONE, Method: PREINCUBATION): inactive; negative
- mutagenic call (Test System: E.COLI, Strain/Indicator: WP2UVRA/PKM101, Metabolic Activation: NONE, Method: PREINCUBATION): inactive; negative
- mutagenic call (Test System: E.COLI, Strain/Indicator: WP2UVRA/PKM101, Metabolic Activation: RAT LIVER S-9, PHENOBARBITAL AND BETA-NAPHTHOFLAVONE, Method: PREINCUBATION): inactive; negative
- mutagenic call (Test System: E.COLI, Strain/Indicator: WP2UVRA, Metabolic Activation: NONE, Method: PREINCUBATION): inactive; negative
- mutagenic call (Test System: E.COLI, Strain/Indicator: WP2UVRA, Metabolic Activation: RAT LIVER S-9, PHENOBARBITAL AND BETA-NAPHTHOFLAVONE, Method: PREINCUBATION): inactive; negative

SMILES: CCCN(COC(C)=O)N=O
- mutagenic call (Test System: UDS RAT UROTHELIAL CELLS, Strain/Indicator: THY INCORP, Metabolic Activation: NONE): active; positive

SMILES: O=[N+]([O-])c1cc2c3c(c1)CCc1cc([N+](=O)[O-])cc(c1-3)CC2
- mutagenic call (Test System: AMES SALMONELLA TYPHIMURIUM, Strain/Indicator: TA98(1,8-DNP6), Metabolic Activation: NONE, Method: STANDARD PLATE): active; positive
- mutagenic call (Test System: AMES SALMONELLA TYPHIMURIUM, Strain/Indicator: TA98(NR), Metabolic Activation: NONE, Method: STANDARD PLATE): active; positive
- mutagenic call [1]: active; positive
